# Data from PMC8863579, “Effects of pharmacological inhibition of the sodium‐dependent phosphate cotransporter 2b (NPT2b) on intestinal phosphate absorption in mouse and rat models” (Pharmacology Research & Perspectives, 2022).
# “And” between values parts separate entries of the source, which are not always exact repeats. Equal values may be shown once.
# Assays:
# [1] = target: T1, Human PiT1 (Homo sapiens, UniProt Q8WUM9); assay: 33P-phosphate uptake in CHO cells over-expressing human PiT1; format: cell-based
# T1 construct: Full Length cDNA Cloning and Generation of Cell Lines Over-Expressing Human NPT2a, NPT2c, Pit1, and Pit2; host or cells: CHO-K1, pcDNA3.1(+), constitutive
# T1 sequence (Q8WUM9 1-679): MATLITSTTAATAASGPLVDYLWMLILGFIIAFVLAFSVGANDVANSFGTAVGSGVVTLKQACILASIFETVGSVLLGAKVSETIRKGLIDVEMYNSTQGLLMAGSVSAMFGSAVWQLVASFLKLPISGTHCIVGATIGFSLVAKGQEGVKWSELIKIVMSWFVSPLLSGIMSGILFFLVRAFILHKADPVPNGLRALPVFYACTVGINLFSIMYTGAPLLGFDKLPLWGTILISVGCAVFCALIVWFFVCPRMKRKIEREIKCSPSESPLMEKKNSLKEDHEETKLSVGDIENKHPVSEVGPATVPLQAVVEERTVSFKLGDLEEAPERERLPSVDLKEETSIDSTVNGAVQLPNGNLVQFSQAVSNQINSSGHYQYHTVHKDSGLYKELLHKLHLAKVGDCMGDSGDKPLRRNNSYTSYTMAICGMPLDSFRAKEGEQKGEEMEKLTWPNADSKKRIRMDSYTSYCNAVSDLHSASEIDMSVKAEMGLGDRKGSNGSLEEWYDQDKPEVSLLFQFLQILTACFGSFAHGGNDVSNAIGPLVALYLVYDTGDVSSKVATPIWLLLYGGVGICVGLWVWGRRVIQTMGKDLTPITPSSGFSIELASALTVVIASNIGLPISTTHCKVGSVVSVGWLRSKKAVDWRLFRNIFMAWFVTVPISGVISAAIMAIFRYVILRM
# Method: T‐Rex™ Chinese Hamster Ovary cells (CHO; Thermo Fisher Scientific) stably expressing human, mouse, or rat NPT2b under a tetracycline‐inducible promoter were generated using standard cDNA transfection and clone selection procedures (see Supporting Information). Cells were plated in 96‐well CytoStar‐T® scintillating microplates and were incubated overnight in growth media plus 100 ng/ml of tetracycline to induce expression of NPT2b. The next day, cells were washed 3 times with 200 µl assay buffer (137 mM NaCl, 5.4 mM KCl, 2.8 mM CaCl2, 1.2 mM MgSO4, and 14 mM Tris‐HCl buffer, pH 7.5). LY3358966 serially diluted 1‐to‐3 in DMSO was added to cells with assay buffer. An equal volume of H3 ^33PO4 (PerkinElmer) in assay buffer supplemented with 5 µM potassium phosphate was then added to initiate radiolabeled phosphate (^33P‐phosphate) uptake. […] The plate was immediately read on a Wallac MicroBeta Trilux liquid scintillation counter. Percent inhibition at all concentrations tested was calculated, and IC50 values were then determined using a 4‐parameter logistic curve fitting equation.
# Similar methods were used to measure the effects of LY3358966 on other transporters of interest, except that constitutive promoters were used to generate CHO cells over‐expressing human PiT1 and PiT2. The ^33P‐phosphate uptake was measured after 45 min at 20°C for the NPT2a, NPT2c, PiT1, and PiT2 assays. […]
# [2] = system: intestinal phosphate absorption; assay: Recovery of radiolabeled phosphate in feces of rats; format: in vivo, rat; conditions: LY3358966 10 mg/kg
# Method: Male Sprague Dawley rats, 260–287 g for the first study and 274–362 g for the second study, were fasted for 4 h (the first 4 h of the light cycle) then dosed with placebo, a 50 or 150 mg/kg sevelamer HCl water dispersion, LY3358966 SDD (10 mg/kg API) dissolved in water, or a combination of LY3358966 SDD and sevelamer HCl. Fifteen minutes later, the animals were dosed with radiolabeled phosphate as described above. In the first study, the animals were given free access to food, then feces were collected at 6, 24, and 48 h post radiolabeled phosphate dose. In the second study, the animals were fasted an additional 4 h, then feces, stomach, small intestine, and large intestine were individually collected. The gastrointestinal tract tissues and feces were digested overnight at 37°C in 1 N NaOH, and the recovered radioactivity was determined.
structure (smiles),measurement,setting,value
"CC1(C)CN(C(=O)NCCCCO)CCN1Cc1cccc(C(=O)Nc2sc3c(c2C(=O)Nc2cc(F)c(CCc4ccc(C(=O)O)cc4)c(F)c2)CCCC3)c1 [LY3358966, 4‐[2‐[2,6‐difluoro‐4‐[[2‐[[3‐[[4‐(4‐hydroxybutylcarbamoyl)‐2,2‐dimethyl‐piperazin‐1‐yl]methyl]benzoyl]amino]‐4,5,6,7‐tetrahydrobenzothiophene‐3‐carbonyl]amino]phenyl]ethyl]benzoic acid]",IC50,[1]; 45 min at 20°C,> 100 µM
same,Selectivity,[1]; ratio of IC50 of human PiT1 assay to that of human NPT2b assay,>3086
same,NPT2b inhibitor mediated recovery in feces (difference between placebo and LY3358966-treated groups),"[2]; 48 h, 10 mg/kg",5.3% and 5.34%
same,"33P Recovered in Feces (0-6 hrs), Mean ± SEM",[2],0.23 ± 0.19%
same,"33P Recovered in Feces (6-24 hrs), Mean ± SEM",[2],16.62 ± 1.04%
same,"33P Recovered in Feces (24-48 hrs), Mean ± SEM",[2],1.44 ± 0.14%
same,"33P Recovered in Feces Total (0-48 hrs), Mean ± SEM",[2]; 10 mg/kg,18.29 ± 1.04%
